Experimental data as given in patent US9078949B2, “Compositions of partially deacetylated chitin derivatives” (GENIS HF., priority 2005, dated 2015).
Read-outs that look alike come from different tables or passages of the source.

Tests used:
[1] = target: HC gp-39 (39-kDa Human Cartilage Glycoprotein) (Homo sapiens, UniProt P36222); experiment: Binding to HC gp-39 by intrinsic tryptophan fluorescence
Procedure: The affinities of non-covalent complexes between ChOS and HC gp-39 were analysed making use of the change of the intrinsic tryptophan fluorescence of the protein under binding conditions. The change of fluorescence intensity is caused by ligand-induced changes of the solvent cover of tryptophan residues and positively correlated with the sugar concentration.
HC gp-39 was dissolved in 25 mM Tris-HCl buffer pH 7.4 containing 1 mM dithiothreitol to a final concentration of 1.00 μM (protein solution). Different concentrations of homologues were prepared in 25 mM Tris-HCl buffer pH 7.4 containing 1 mM dithiothreitol (sugar solution). […] The fluorescence was read for each reaction in a Perkin-Elmer LS SOB fluorescence spectrometer (Perkin-Elmer, Überlingen, Germany). […] Each reaction was measured in triplicate.
From the row fluorescence data the fluorescence of the blank was subtracted. F-F0 was plotted versus the concentration of the homologue and the data were fitted by non-linear regression to a one-site saturation model employing SigmaPlot® software to obtain binding isotherms. y=Bmax*x/(Kd+x) Bmax: fluorescence intensity for a saturated binding domain of HC gp-39 Kd: dissociation constant.

Chitinase A [2] = target: T1, Chitinase A (Serratia marcescens, UniProt P07254); experiment: Blocking of Chitinase A activity (4-MU-A3 substrate, fluorescence); assay type: biochemical; conditions: for blocking of chitinase activity: pH 7.4
Procedure: Chitooligosaccharides (ChOS) (lots No. G020418 and G020218) were fractionated into homologue fractions, either by cation exchange chromatography or gel permeation chromatography or by the combination of both methods. The products were freeze dried and analysed for structure and sequence by MALDI-TOF mass spectrometry. Three other un-fractionated ChOS lots from Genis were also analysed by the same MALDI-TOF method (lots No. G040823, G050421 and G050421UF; where UF stands for ultrafiltrated through 1 kDa membrane to reduce the content of DP≦5).
A purified Chitinase A preparation from S. marcescens was used as a standard Family 18 chitinase, and 4-methylumbelliferyl-beta-D-N,N′-triacetylchitotrioside (4-MU-A3), a chitin tetramer (A4) analogue, was used as a standard chitinase substrate.
The standard Chitinase A solution was 0.5 nM (500 pM) in 0.1 mg/ml BSA, 50 mM phosphate buffer pH 7.4 (Chit-A sol.) and the substrate solution was 40 μM 4-MU-A3 in 50 mM phosphate buffer pH 7.4.
Different concentration of each pure ChOS homologue (usually 0, 25, 50, 100, 200, 400 and 800 μM) was made in the substrate buffer. For the assay, 25 μl of the Chit-A solution was mixed with 25 μl of the substrate/blocking solution, incubated at 37° C. for 10 min. The reaction was stopped with 1.95 ml 0.2 M sodium […] buffer (Na2CO3). The formation of the product, 4-Methylumbelliferone (4-MU) was read for each reaction in a Perken-Elmer LS SOB Fluorometer. The excitation wavelength was 380 nm (5 nm adjusting slit) and the emission wavelength was 460 nm (4 nm adjusting slit). Each reaction was read in triplicate. […] Affinity of each homologue was calculated as inverted IC50.
Even tough the chitinase A has an optimal activity at pH 5.5, the pH for the blocking experiments was adjusted at pH 7.4. This was done in order to free the amine groups of ChOS from protons, since earlier pilot experiments performed at pH 5.5 indicated low blocking activities of the ChOS homologues. Also this pH better resembles the physiological pH of blood and other physiological fluids, better reflecting the behaviour of the oligosaccharides in the human body.

Chitinase A [3] = target: T1, Chitinase A; experiment: Cleavage of oligomers by Chitinase A judged by MALDI-TOF (biostability); assay type: in vitro ADME, S. marcescens; conditions: assay conditions (pH 5.5 and pH 7.4)
[4] = Absorption of chitooligosaccharides into the blood of a human volunteer (MALDI-TOF MS, GPC, HPIEC); assay type: in vivo; conditions: for Mass calc (HPIEC homologue): blood sample (7.0 ml) after 3 weeks of ChOS consumption
Procedure: Chitooligomers composed of N-acetyl glucosamine and glucosamine were prepared by Genis, Reykjavik, Iceland. Briefly, chitin was partially deacetylated in alkali, washed and hydrolysed to oligomers by chitinase. Oligomers were ultrafiltrated, desalted and spray dried to a fine white powder. Average degree of deacetylation was 47% (FA 0.53). Analysis and quantification of oligomers and homologues were performed, using the same methods as for the blood.
A voluntary subject was consuming daily 1.8 g of ChOS (Genis ehf; S41124-1K) for a period of 4 weeks. Blood samples were collected within a period of 6 weeks. The first sample was taken before consumption of ChOS. The following 4 samples were taken weekly starting 1 week after the first consumption. Sample 6 was taken 2 weeks after stopping the consumption of ChOS. The volume of each sample was 7.0 ml. The blood samples were centrifuged for 30 min at 3000 rpm. The serum was collected. Methanol and sodium chloride were added to a final concentration of 30% methanol and 0.1 mg/ml sodium chloride followed by another centrifugation step. Samples of 500 μl were filtered through 3 kDa cut-off membranes (ultrafiltration). The supernatant was filled up for 3 times. Appropriate filtrates were pooled, the methanol was removed in vacuum, and the samples were finally lyophilised.
The lyophilised samples (app. 100 μg) were redissolved in 100 μl of methanol/water (v/v 50:50). An aliquot of the solution was mixed on the target with 2 μl of a solution of DHB in 30% aqueous ethanol ([…]). The drop was dried under a gentle stream of air. Mass spectra were recorded on a Bruker Reflex II (Daltonik, Bremen, Germany) in the positive ion mode. For ionisation, a nitrogen laser (337 nm, 3 ns pulse width, 3 Hz) was used. All spectra were measured in the reflector mode using external calibration. Monoisotopic peaks are labelled in all mass spectra.
The lyophilised samples (appr. 100 μg) were redissolved in 100 μl of methanol/deuterium oxide (v/v 50:50). A 10-fold molar excess of hexadeutero acetic anhydride was added as well as 3 drops of glacial tetradeutero acetic acid. The solution was stirred at 30° C. for 12 h. The reaction was stopped by addition of an equimolar amount of ammonia. The solutions were lyophilised and redissolved in 100 μl of ammonia. The concentration of ammonia was set to a 10-fold molar excess with respect to the moles of N-acetyl glucosamine units (GlcNAc or A). The solution was stirred at 22° C. over night. The ammonia was removed in vacuum, followed by lyophilisation of the samples. […] The concentration of potassium hydroxide was set to a 2-fold molar excess with respect to the moles of GlcNAc units. The solution was stirred for 10 h at r. t. neutralized by addition of cation exchange resin (H^+ form) followed by filtration and lyophilisation of the filtrate.
MALDI-TOF mass spectra were taken as described in Example 4. The quantification of relative signal intensities leads to the composition of homologues in the mixture.
The samples are prepared as described under Homologue determination by MALDI-TOF MS. Subsequently, a standard was added to each sample. The standard, a chitin oligomer (An), has to be of the same DP+/−1 as the analyte. A serial dilution of this standard was used. A comparison of the signal intensities of the analyte with the standard gives the concentration of the analyte. […]
Mixtures of homologues (and oligomers) obtained from the GPC separation were analysed by HPIEC. […]

T1 sequence (P07254 24-563): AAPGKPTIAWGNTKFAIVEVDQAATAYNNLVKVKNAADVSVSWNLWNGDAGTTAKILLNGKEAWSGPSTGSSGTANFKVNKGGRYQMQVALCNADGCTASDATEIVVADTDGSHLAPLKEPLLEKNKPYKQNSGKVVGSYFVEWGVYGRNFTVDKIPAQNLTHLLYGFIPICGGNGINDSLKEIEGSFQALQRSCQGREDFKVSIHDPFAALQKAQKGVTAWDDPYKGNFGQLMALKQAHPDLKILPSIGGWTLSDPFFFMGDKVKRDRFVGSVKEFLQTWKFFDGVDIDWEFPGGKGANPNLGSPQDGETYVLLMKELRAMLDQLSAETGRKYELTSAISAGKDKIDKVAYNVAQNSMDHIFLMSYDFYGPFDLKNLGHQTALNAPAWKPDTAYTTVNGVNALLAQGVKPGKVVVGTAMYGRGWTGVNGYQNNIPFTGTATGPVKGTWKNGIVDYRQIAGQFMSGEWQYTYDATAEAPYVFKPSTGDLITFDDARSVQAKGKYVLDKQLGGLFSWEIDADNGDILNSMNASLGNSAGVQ
Sequence of HC gp-39 (39-kDa Human Cartilage Glycoprotein) (P36222 22-383): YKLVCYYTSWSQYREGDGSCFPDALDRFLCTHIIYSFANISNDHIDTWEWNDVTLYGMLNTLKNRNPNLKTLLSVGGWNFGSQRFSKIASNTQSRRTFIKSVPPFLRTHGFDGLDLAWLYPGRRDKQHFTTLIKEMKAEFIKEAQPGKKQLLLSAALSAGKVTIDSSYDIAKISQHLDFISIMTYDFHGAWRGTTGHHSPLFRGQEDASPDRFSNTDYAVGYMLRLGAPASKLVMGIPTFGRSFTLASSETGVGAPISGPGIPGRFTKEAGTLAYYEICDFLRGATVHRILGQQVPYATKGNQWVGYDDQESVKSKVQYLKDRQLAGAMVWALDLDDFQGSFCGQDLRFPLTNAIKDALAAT

N[C@H]1[C@H](O[C@H]2[C@H](O)[C@@H](N)[C@H](O[C@H]3[C@H](O)[C@@H](N)[C@H](O[C@H]4[C@H](O)[C@@H](N)[C@H](O[C@H]5[C@H](O)[C@@H](N)[C@H](O[C@H]6[C@H](O)[C@@H](N)C(O)O[C@@H]6CO)O[C@@H]5CO)O[C@@H]4CO)O[C@@H]3CO)O[C@@H]2CO)O[C@H](CO)[C@@H](O)[C@@H]1O (stereo partly drawn) [Homologue D6]
dissociation constant [1]: μmolar range
blocking of chitinase activity (Chitinase A [2]): poor blockers
IC50 (Chitinase A [2]; pH 7.4, 37° C., 10 min, 4-MU-A3 substrate, NB = no blocking found, read-out: IC50): 1.98 mM

CC(=O)N[C@H]1[C@H](O[C@H]2[C@H](O)[C@@H](NC(C)=O)[C@H](O[C@H]3[C@H](O)[C@@H](NC(C)=O)C(O)O[C@@H]3CO)O[C@@H]2CO)O[C@H](CO)[C@@H](O[C@@H]2O[C@H](CO)[C@@H](O[C@@H]3O[C@H](CO)[C@@H](O[C@@H]4O[C@H](CO)[C@@H](O)[C@H](O)[C@H]4NC(C)=O)[C@H](O)[C@H]3NC(C)=O)[C@H](O)[C@H]2NC(C)=O)[C@@H]1O (stereo partly drawn) [Homologue A6]
cleavage by Chitinase A (Chitinase A [3]): cleaved

NC1C(OC2C(CO)OC(OC3C(CO)OC(OC4C(CO)OC(OC5C(CO)OC(OC6C(CO)OC(OC7C(CO)OC(OC8C(CO)OC(OC9C(CO)OC(OC%10C(CO)OC(OC%11C(CO)OC(OC%12C(CO)OC(O)C(N)C%12O)C(N)C%11O)C(N)C%10O)C(N)C9O)C(N)C8O)C(N)C7O)C(N)C6O)C(N)C5O)C(N)C4O)C(N)C3O)C(N)C2O)OC(CO)C(O)C1O (stereo not drawn) [Homologue D12]
blocking of chitinase activity (Chitinase A [2]): poor blockers

CC(=O)N[C@H]1[C@H](O[C@H]2[C@H](O)[C@@H](NC(C)=O)C(O)O[C@@H]2CO)O[C@H](CO)[C@@H](O[C@@H]2O[C@H](CO)[C@@H](O)[C@H](O)[C@H]2NC(C)=O)[C@@H]1O (stereo partly drawn) [Homologue A3]
Mass calc (HPIEC homologue) ([4]; GPC, HPIEC and MALDI-TOF): 30 μg
concentration at 3 weeks ([4]; human, serum, oral, 1.8 g daily (ChOS mixture), blood sample after 3 weeks of ChOS consumption, GPC, HPIEC and MALDI-TOF, read-out: Conc (HPIEC homologue)): 4000 ng/mL
IC50 (Chitinase A [2]): 0.219 mM

CC(=O)N[C@H]1[C@H](O[C@H]2[C@H](O)[C@@H](NC(C)=O)C(O)O[C@@H]2CO)O[C@H](CO)[C@@H](O)[C@@H]1O (stereo partly drawn) [Homologue A2]
Mass calc (HPIEC homologue) ([4]; GPC, HPIEC and MALDI-TOF): 270 μg
Conc (HPIEC homologue) ([4]; blood sample after 3 weeks of ChOS consumption, GPC, HPIEC and MALDI-TOF): 39 μg/mL
oligomers observed in blood sample ([4]; post 1 week of ChOS consumption, 1.8 g daily): traces

NC1C(OC2C(CO)OC(OC3C(CO)OC(OC4C(CO)OC(OC5C(CO)OC(OC6C(CO)OC(OC7C(CO)OC(OC8C(CO)OC(OC9C(CO)OC(O)C(N)C9O)C(N)C8O)C(N)C7O)C(N)C6O)C(N)C5O)C(N)C4O)C(N)C3O)C(N)C2O)OC(CO)C(O)C1O (stereo not drawn) [Homologue D9]
blocking of chitinase activity (Chitinase A [2]): poor blockers
